Data set [1] concerns schizophrenia patients. The data set is described as follows: Handwriting velocity scaling (VS) in patients grouped by antipsychotic medication. In kind it is in vivo, human. As to conditions: lower VS scores indicate more parkinsonian bradykinesia; loops of 1, 2, 4 cm.
From the text: Lower VS scores indicate more parkinsonian bradykinesia.
This measure expresses the extent to which movements are sped up when size is increased.
One simple and direct measure is the increase of a velocity measure in one stroke (e.g., in cm/s) divided by the increase of size (e.g., in cm). This resulting velocity scaling has a unit of size/duration/size or 1/duration.
The test system of data set [2] is schizophrenia patients. As to conditions: for average normalized jerk (ANJ) score compared between medication groups / average normalized jerk (ANJ) score compared with healthy subjects: handwriting dysfluency; for average normalized jerk (ANJ) score compared between medication groups: marker of TD/EPS, 9 handwriting tasks, dominant hand, 1, 2, 4 cm, versus other medications; for average normalized jerk (ANJ) score compared with healthy subjects: medication group versus normal healthy subjects.

Data set [3] concerns schizophrenia patients. In words: Observer-based EPS severity ratings (SAEPS, AIMS, BARS). In kind it is in vivo, human.
Data set [4] deals with schizophrenia patients. Particulars: in vivo.
The next data set concerns the target dopamine receptor (Homo sapiens, UniProt P14416). Particulars: PET in schizophrenic patients before and after treatment; cited from earlier work.

Entries after “also recorded” stand apart in the source; their conditions may differ.

Sequence of dopamine receptor (P14416 whole entry): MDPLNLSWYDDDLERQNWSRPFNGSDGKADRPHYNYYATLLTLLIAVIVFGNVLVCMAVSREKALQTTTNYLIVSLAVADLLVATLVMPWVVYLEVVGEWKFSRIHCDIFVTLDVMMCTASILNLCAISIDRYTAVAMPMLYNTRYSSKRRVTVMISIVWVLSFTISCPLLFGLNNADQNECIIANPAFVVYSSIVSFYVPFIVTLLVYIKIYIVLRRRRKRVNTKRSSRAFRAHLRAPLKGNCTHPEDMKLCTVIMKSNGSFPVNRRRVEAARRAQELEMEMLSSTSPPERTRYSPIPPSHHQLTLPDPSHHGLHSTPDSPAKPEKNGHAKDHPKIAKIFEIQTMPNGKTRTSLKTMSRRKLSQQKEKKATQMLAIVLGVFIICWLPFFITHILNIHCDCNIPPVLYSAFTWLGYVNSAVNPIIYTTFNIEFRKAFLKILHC

Turning to `O=C1CCc2ccc(OCCCCN3CCN(c4cccc(Cl)c4Cl)CC3)cc2N1` [aripiprazole], in the data set on schizophrenia patients [1], the “velocity scaling (VS) score (slope of peak vertical velocity versus vertical size) compared between medication groups” value was “lower VS scores than those on olanzapine or quetiapine; also recorded: lower VS scores than those on other medications”. In the data set with schizophrenia patients [2] (collapsed across all 14 task conditions), the “effect of antipsychotic type on average normalized jerk and peak velocity” value is “doing worse than others”. Further, in the data set with schizophrenia patients [2], the “average normalized jerk (ANJ) score compared between medication groups” value was “significantly higher ANJ” and the “average normalized jerk (ANJ) score compared with healthy subjects” value was “significantly higher ANJ scores than healthy subjects”.

As for `OCCOCCN1CCN(C2=Nc3ccccc3Sc3ccccc32)CC1` [quetiapine], in the data set with schizophrenia patients [2], the “average normalized jerk (ANJ) score compared between medication groups” value is on record as “significantly less abnormality than those treated with aripiprazole or risperidone” and the “average normalized jerk (ANJ) score compared with healthy subjects” value was “did not differ from normal healthy subjects”.

Consider `Cc1nc2n(c(=O)c1CCN1CCC(c3noc4cc(F)ccc34)CC1)CCCC2` [risperidone], for which, in the data set with schizophrenia patients [3] (conventional ratings), the “observer-based EPS assessments: medicated versus unmedicated groups and relationship with dose” value was “not able to detect differences between risperidone-medicated and unmedicated groups or a relationship with risperidone dose”. The “correlation between observer-based severity ratings and dose” value in the data set on schizophrenia patients [3] (p>0.05) is reported as “no significant correlations”. Further, in the data set with schizophrenia patients [4], the “correlation (r) of peak vertical velocity with daily dose” value is recorded as −0.45 and the “motor impairment quantified by handwriting movements” value is given as “significant motor impairment”. In addition, on dopamine receptor, the “relationship between reduction in handwriting size (area) and dopamine receptor occupancy” value is “significant relationship between reduction in handwriting size (expressed by area) and dopamine receptor occupancy”.

Values taken from patent publication US20100152622A1, “MOTOR PHENOMENON MEASUREMENT” (priority 2007, published 2010).
